The record followed here is patent US20180243345A1, “METHOD FOR INCREASING MUSCLE GROWTH USING KRILL EXTRACT” (AVOCA, INC., priority 2015, published 2018).

The test system of this experiment is mTOR signaling. Nature of the experiment: mTOR signaling in C2C12 myoblasts (Western blot, ratio of P-p70-389 to total p70). The experiment is classed as cell-based. To be noted: for change in ratio of P-p70-389 to total p70 (mTOR signaling) compared to vehicle/control, in words / mTOR signaling compared with another stimulant, in words: 10 or 30 μM, 20 minutes; for mTOR signaling (ratio of P-p70-389 to total p70): 20 minutes stimulation, compared to vehicle. The protocol: C2C12 myoblasts were plated at approximately 30% confluence and grown for 24 hours in 10% FBS High Glucose DMEM with antibiotics (100m/ml streptomycin and 100 U/ml penicillin; Sigma). At 16 hours prior to the experiment, myoblasts cells were switched to serum free high glucose DMEM (no antibiotics) and were approximately 70% confluent at the time of the experiment. All stimulants were dissolved in chloroform to yield a concentration of 10 mg/mL, with the exception of DAG which was dissolved at 2 mg/mL and G3P which was dissolved at 6 mg/mL. […] Accordingly, cells were stimulated for 20 minutes with vehicle (Control; 100 μL of PBS) 10 or 30 μM of RIMFROST Sublime Krill Oil Extract (Rimfrost USA, Inc, Merry Hill, N.C.), soy-derived (S) phosphatidylserine (S-PS), phosphatidylinositol (S-PI), phosphatidylethanolamine (S-PE), phosphatidylcholine (S-PC), phosphatidic acid (S-PA), lysophosphatidic acid (S-LPA), diacylglycerol (DAG), glycerol-3-phosphate (G3P), or egg-derived PA (E-PA). Cells were then harvested in lysis buffer (40 mM Tris, pH 7.5; 1 mM EDTA; 5 mM EGTA; 0.5% Triton X-100; 25 mM (3-glycerophosphate; 25 mM NaF; 1 mM Na3VO4; 10 μg/mL leupeptin; and 1 mM PMSF) and subjected to immunoblotting as previously described. The ratio of P-p70-389 to total p70 was used as readout for mTOR signaling. As used in the Examples disclosed herein, 10 μM of RIMFROST Sublime Krill Oil Extract contains 0.01253 μM PS, which is 0.6% of the phospholipid content; and 30 μM of RIMFROST Sublime Krill Oil Extract contains 0.0376 μM PS, which is 0.6% of the phospholipid content.
The data was analyzed using a one way analysis of variance (ANOVA). A Tukey's Multiple Comparison Test was used to determine significant differences between treatments. Significance was set at P<0.05. Statistical analyses were performed on SigmaStat software (San Jose, Calif., USA).
In accordance with the materials and methods described above, krill extract, S-PC, S-PS, and S-PA were tested for their ability to activate mTOR signaling. […] The samples were then subjected to Western blot analysis for p70S6K phosphorylation on the threonine 389 residue (p′70-389) and total p70. The ratio of these signals was calculated and used as a marker of mTOR signaling.
(In western blotting, separated proteins are transferred to a membrane and probed.)

For the molecule phosphatidylcholine [S-PC], the “change in ratio of P-p70-389 to total p70 (mTOR signaling) compared to vehicle/control, in words” value was “no increase”.

With diacylglycerol [DAG], the “change in ratio of P-p70-389 to total p70 (mTOR signaling) compared to vehicle/control, in words” value is recorded as “no increase”.

On to phosphatidylinositol [S-PI], for which the “change in ratio of P-p70-389 to total p70 (mTOR signaling) compared to vehicle/control, in words” value is “no increase”.

Turning to lysophosphatidic acid [S-LPA], the “mTOR signaling compared with another stimulant, in words” value is given as “to a greater degree than did E-PA”. For the same molecule, under “taken as 10 μM”, the “mTOR signaling (ratio of P-p70-389 to total p70)” value is 638%. Further, where the note is “taken as 30 μM”, the “mTOR signaling (ratio of P-p70-389 to total p70)” value is 694%.

Take `O=P(O)(O)OCC(O)CO` (stereo not drawn) [G3P, glycerol-3-phosphate]: the “change in ratio of P-p70-389 to total p70 (mTOR signaling) compared to vehicle/control, in words” value was “no increase”.

Consider phosphatidylserine [S-PS], for which the “mTOR signaling (ratio of P-p70-389 to total p70)” value is 529% (taken as 10 μM) and 558% (taken as 30 μM).

With phosphatidic acid [E-PA], the “mTOR signaling (ratio of P-p70-389 to total p70)” value worked out at 206% (taken as 10 μM) and 221% (taken as 30 μM).

phosphatidylethanolamine [S-PE]: the “change in ratio of P-p70-389 to total p70 (mTOR signaling) compared to vehicle/control, in words” value is “no increase”.

In the case of phosphatidic acid [S-PA], the “mTOR signaling compared with another stimulant, in words” value is recorded as “to a greater degree than did E-PA”. Besides, the “mTOR signaling (ratio of P-p70-389 to total p70)” value (taken as 10 μM) is on record as 658%. For the same molecule, for the setting “taken as 30 μM”, the “mTOR signaling (ratio of P-p70-389 to total p70)” value is 636%.
